This is an account of results in article PMC12123458, “Unraveling Small Molecule-Mediated Sirtuin 3 Activation at a Distinct Binding Site for Cardioprotective Therapies” (ACS Central Science, 2025).

The test system of one assay is H9c2 cells. Kind of assay: Dox-induced cardiotoxicity model in H9c2 cells, MTT cell viability. The class given is cell-based. The method, then:
H9c2 cardiomyocytes were cultured in high-glucose DMEM supplemented with 10% FBS and 1% penicillin/streptomycin under a 5% CO2 atmosphere at 37 °C. Cells were seeded at 5 × 10^4 cells/mL in 96-well plates and treated with 1 μM Dox for 24 h. After Dox treatment, cell viability was quantified via MTT assay; 3-(4,5-dimethythiazol-2-yl)-2,5-diphenyltetrazolium bromide (MTT, 5 mg/mL) was applied for 4 h, followed by DMSO dissolution of formazan crystals. Additionally, cells were pretreated with 10 μM SKLB-11A for 24 h prior to 1 μM Dox exposure, and viability was similarly assessed using MTT.

Assay [1] deals with T1, SIRT1 (Homo sapiens, UniProt Q96EB6).
T1 sequence (Q96EB6 1-747): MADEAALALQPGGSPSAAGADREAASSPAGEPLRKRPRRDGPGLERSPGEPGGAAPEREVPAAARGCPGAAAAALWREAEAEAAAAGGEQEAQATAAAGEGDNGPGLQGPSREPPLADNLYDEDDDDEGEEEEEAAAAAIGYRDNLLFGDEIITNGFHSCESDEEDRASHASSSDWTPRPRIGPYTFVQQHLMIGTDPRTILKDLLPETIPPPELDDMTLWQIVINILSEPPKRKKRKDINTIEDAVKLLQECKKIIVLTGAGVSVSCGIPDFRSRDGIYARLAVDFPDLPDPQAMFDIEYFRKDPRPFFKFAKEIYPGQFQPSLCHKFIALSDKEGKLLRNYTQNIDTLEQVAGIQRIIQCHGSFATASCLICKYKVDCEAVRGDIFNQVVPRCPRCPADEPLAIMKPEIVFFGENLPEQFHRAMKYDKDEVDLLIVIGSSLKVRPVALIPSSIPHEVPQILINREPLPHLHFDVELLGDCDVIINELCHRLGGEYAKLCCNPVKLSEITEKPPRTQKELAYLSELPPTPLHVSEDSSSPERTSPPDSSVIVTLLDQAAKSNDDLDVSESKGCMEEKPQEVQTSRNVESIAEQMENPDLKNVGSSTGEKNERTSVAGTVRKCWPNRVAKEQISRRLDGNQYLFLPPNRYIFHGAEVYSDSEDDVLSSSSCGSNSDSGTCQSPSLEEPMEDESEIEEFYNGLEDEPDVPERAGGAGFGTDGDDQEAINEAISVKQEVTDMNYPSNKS
Nature of the assay: SPR binding to SIRT1. The method, then: (§1) The affinity of SKLB-11A for SIRT1, SIRT2, SIRT3, SIRT5, and SIRT6 was determined using a Reichert 4SPR system (Reichert Technologies, Depew, NY, USA). Proteins at 200 μg/mL were immobilized on a dextran-coated sensor chip (13206066) until reaching ≥12,000 response units (RUs). A dual-flow channel setup was used, reserving one channel for blank controls. SKLB-11A was introduced at varying concentrations for binding and subsequent dissociation kinetic analysis. Data acquisition was at 25 °C utilizing a PBST running buffer (pH 7.4). The equilibrium dissociation constant (K d) was computed from steady-state affinity measurements using TraceDrawer software.
For orientation: In SPR one partner is held on a chip, and binding of the other changes the refractive index at the surface.

The target of assay [2] is T2, SIRT2 (Homo sapiens, UniProt Q8IXJ6).
T2 sequence (Q8IXJ6 1-389): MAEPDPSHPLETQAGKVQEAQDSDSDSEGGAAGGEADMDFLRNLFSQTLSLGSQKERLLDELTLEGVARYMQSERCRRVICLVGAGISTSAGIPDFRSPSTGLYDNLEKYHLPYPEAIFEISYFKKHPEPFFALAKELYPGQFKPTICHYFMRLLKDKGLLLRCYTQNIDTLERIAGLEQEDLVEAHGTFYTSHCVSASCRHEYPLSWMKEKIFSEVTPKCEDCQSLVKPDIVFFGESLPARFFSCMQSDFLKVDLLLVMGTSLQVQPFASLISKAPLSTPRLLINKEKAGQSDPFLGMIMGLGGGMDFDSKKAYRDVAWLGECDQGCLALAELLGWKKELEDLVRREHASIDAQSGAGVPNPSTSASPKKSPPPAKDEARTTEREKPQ
Kind of assay: SPR binding to SIRT2. The method, then:
as §1

Assay [3] addresses T1, SIRT1. Nature of the assay: Coupled enzymatic assay, acetylated p53-K381 substrate. Conditions: 100 μM. It is filed as biochemical. An excerpt:
Additionally, we used surface plasmon resonance (SPR) to measure the binding of SKLB-11A to immobilized SIRT3. […] We next evaluated the selectivity of SKLB-11A for different SIRT family members. […] We next examined the functional specificity of SKLB-11A using coupled enzymatic assays with isoform-specific, physiologically relevant substrates: acetylated p53-K381 for SIRT1, acetylated α-tubulin-K25 for SIRT2, acetylated MnSOD-K122 for SIRT3, and succinylated CPS1-K537 for SIRT5 (Supplementary Table S3). […] Using Schrödinger molecular docking simulations, we assessed the binding interactions of SKLB-11A with SIRT isoforms.

Assay [4] concerns the target T3, SIRT2 (Rattus norvegicus, UniProt Q5RJQ4).
T3 construct: endogenous in cells; host or cells: H9c2
T3 sequence (Q5RJQ4 1-350): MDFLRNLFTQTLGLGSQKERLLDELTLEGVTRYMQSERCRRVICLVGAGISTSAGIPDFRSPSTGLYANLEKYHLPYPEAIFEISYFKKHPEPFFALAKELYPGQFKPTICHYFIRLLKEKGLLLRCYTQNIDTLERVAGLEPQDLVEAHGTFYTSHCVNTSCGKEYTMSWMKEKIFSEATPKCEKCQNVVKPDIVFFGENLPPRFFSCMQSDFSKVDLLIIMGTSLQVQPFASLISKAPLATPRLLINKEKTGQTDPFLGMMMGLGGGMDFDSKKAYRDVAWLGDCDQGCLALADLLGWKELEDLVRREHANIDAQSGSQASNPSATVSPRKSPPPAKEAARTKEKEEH
Nature of the assay: CETSA of SIRT2 in H9c2 cells. The class given is cell-based.

For assay [5], the system named is LC3, p62, PINK1, Parkin in H9c2 cells. Kind of assay: Autophagy/mitophagy markers in H9c2 cells (Western blot, immunofluorescence). It is filed as cell-based. The note with it: 24 h. The method, then:
Proteomic analysis was conducted on H9c2 cells and murine cardiac tissues. Protein lysates were resolved via SDS-PAGE and transferred onto PVDF membranes. […] After washing, membranes were probed with secondary antibodies for 1 h at room temperature. Detection was facilitated by an ECL kit, with densitometry performed using ImageJ software to quantify protein expression, normalized against controls. The antibodies employed included: anti-SIRT3 (2627, Cell Signaling Technology), anti-acetylated lysine (9441, CST), anti-Ac.K68-MnSOD2 (ab137037, Abcam), anti-Ac.K122-MnSOD2 (ab214675, Abcam), anti-MnSOD2 (13141, CST), anti-LC3B (3868, CST), anti-p62 (8025, CST), anti-PINK1 (6946, CST), anti-Parkin (4211, CST), and anti-β-actin (ab8226, Abcam).
(In general: A western blot detects proteins with antibodies after separation by electrophoresis.)

For orientation: Kd means the free concentration of one partner at which half of the binding sites on the other are occupied at equilibrium, for simple one-to-one binding. For the compound `COC(=O)c1c(N)n(Cc2ccc(F)cc2)c2nc3ccccc3nc12` [SKLB-11A, Methyl 2-amino-1-(4-fluorobenzyl)-1H-pyrrolo[2,3-b]quinoxaline-3-carboxylate], in the assay on H9c2 cells (Dox-treated H9c2, MTT), the “protective effects on H9c2 cells compared to the positive control compounds” value is on record as “slightly better protective effects”. Besides, in the assay with H9c2 cells (Rattus norvegicus, H9c2, 10 µM pretreatment 24 h, then 1 µM Dox 24 h, MTT, Model (Dox) = Dox alone, read-out: Cardiomyocyte survival rate at 10 uM (%)), the viability at 10 µM was found to be 78.88 ± 0.65%. In the assay with H9c2 cells (SIRT3 knockdown by shRNA, cell viability), the “cardioprotective effects in H9c2 cells with reduced SIRT3 expression” value is recorded as “significantly diminished”. On SIRT1 [1] (SPR), this compound yielded a Kd of over 200 µM. The “affinity for SIRT1 lower than its affinity for SIRT3” value on SIRT1 [1] (SPR Kd ratio) is “approximately 40 times”. Moreover, the Kd on SIRT2 [2] (SPR) was over 200 µM. The “affinity for SIRT2 lower than its affinity for SIRT3” value on SIRT2 [2] (SPR Kd ratio) was “approximately 40 times”. Further, the “effect on basal SIRT1 deacetylation activity” value at SIRT1 [3] is recorded as “no statistically significant effects”. Besides, the “thermal stability of SIRT2 (CETSA)” value at SIRT2 [4] is on record as “little effect on the thermal stability”. Besides, in assay [5], the “LC3-II and p62 (autophagic flux)” value was “increased LC3-II expression and reduced p62 levels”; the “expression of PINK1 and Parkin” value was “increased the expression of PINK1 and Parkin”.
